Measurements: patent US20260042731A1, “(2,4-DICHLOROPHENOXY)ACETIC ACID ANALOGS” (CORTEVA AGRISCIENCE LLC, priority 2022, published 2026)
Read-outs that look alike come from different tables or passages of the source.

What was measured:
[1] = system: Chenopodium album (CHEAL), common lambsquarters; test: Postemergence herbicide evaluation, growth of Chenopodium album (CHEAL); assay type: in vivo; conditions: Chenopodium album, post-emergence, read-out: Ave. CHEAL, percent reduction in plant size relative to the untreated control; for pest or weed control at 280 g/ha: 280 g ae/ha; for pest or weed control at 560 g/ha: 560 g ae/ha
[2] = system: Ambrosia artemisiifolia (AMBEL), common ragweed; test: Postemergence herbicide evaluation, growth of Ambrosia artemisiifolia (AMBEL); assay type: in vivo; conditions: Ambrosia artemisiifolia, post-emergence, read-out: AVE. AMBEL, percent reduction in plant size relative to the untreated control; for pest or weed control at 280 g/ha: 280 g ae/ha; for pest or weed control at 560 g/ha: 560 g ae/ha
[3] = system: Amaranthus rudis (AMATA), tall water hemp; test: Postemergence herbicide evaluation, growth of Amaranthus rudis (AMATA); assay type: in vivo; conditions: Amaranthus tuberculatus, post-emergence, read-out: Ave. AMATA, percent reduction in plant size relative to the untreated control; for pest or weed control at 280 g/ha: 280 g ae/ha; for pest or weed control at 560 g/ha: 560 g ae/ha
[4] = Volatility of compounds measured by thermogravimetric analysis (TGA); assay type: physicochemical
[5] = system: Abutilon theophrasti (ABUTH), velvetleaf; test: Postemergence herbicide evaluation, growth of Abutilon theophrasti (ABUTH); assay type: in vivo; conditions: Abutilon theophrasti, post-emergence, read-out: AVE. ABUTH, percent reduction in plant size relative to the untreated control; for pest or weed control at 280 g/ha: 280 g ae/ha; for pest or weed control at 560 g/ha: 560 g ae/ha
[6] = system: Glycine max (Enlist E3 traited soybeans, GLXMA); conditions: Enlist E3 soybeans
[7] = system: glyphosate resistant Conyza canadensis (L.) (ERICA), horseweed; test: Postemergence herbicide evaluation, growth of Conyza canadensis (ERICA); assay type: in vivo; conditions: Erigeron canadensis, post-emergence, read-out: Ave. ERICA, percent reduction in plant size relative to the untreated control; for pest or weed control at 280 g/ha: 280 g ae/ha; for pest or weed control at 560 g/ha: 560 g ae/ha
[8] = system: weeds ABUTH, AMATA, AMBEL, CHEAL, ERICA; test: Postemergence herbicide evaluation, overall average % weed control (ABUTH, AMATA, AMBEL, CHEAL, ERICA); assay type: in vivo; conditions: post-emergence, read-out: Overall Ave % Weed Control; for pest or weed control at 280 g/ha: 280 g ae/ha; for pest or weed control at 560 g/ha: 560 g ae/ha
[9] = system: ABUTH, AMATA, AMBEL, CHEAL, ERICA weeds; test: Postemergence herbicide evaluation, overall average % weed control across ABUTH, AMATA, AMBEL, CHEAL, ERICA; assay type: in vivo
Description: For example, the pesticidal activity may include herbicidal activity.

Compound `C[N+](C)(C)CCOC(=O)COc1ccc(Cl)cc1Cl.[Cl-]` [Compound E3, 2-(2-(2,4-Dichlorophenoxy)acetoxy)-N, N, N-trimethylethanaminium chloride] has a pest or weed control at 280 g/ha ([1]; 168 h, 7 DAA) of 68%, a pest or weed control at 560 g/ha ([1]; 168 h, 7 DAA) of 70% and a pest or weed control at 280 g/ha ([1]; 336 h, 14 DAA) of 78%. It also gave a pest or weed control at 560 g/ha ([1]; 336 h, 14 DAA) of 73%, a pest or weed control at 280 g/ha ([1]; 504 h, 21 DAA) of 80% and a pest or weed control at 560 g/ha ([1]; 504 h, 21 DAA) of 77%. It also gave a pest or weed control at 280 g/ha ([2]; 168 h, 7 DAA) of 63%, a pest or weed control at 560 g/ha ([2]; 168 h, 7 DAA) of 75% and a pest or weed control at 280 g/ha ([2]; 336 h, 14 DAA) of 89%. For the same compound, the pest or weed control at 560 g/ha ([2]; 336 h, 14 DAA) was 93%, the pest or weed control at 280 g/ha ([2]; 504 h, 21 DAA) was 95% and the pest or weed control at 560 g/ha ([2]; 504 h, 21 DAA) was 98%. It also gave a pest or weed control at 280 g/ha ([3]; 168 h, 7 DAA) of 78%, a pest or weed control at 560 g/ha ([3]; 168 h, 7 DAA) of 78% and a pest or weed control at 280 g/ha ([3]; 336 h, 14 DAA) of 78%. The pest or weed control at 560 g/ha ([3]; 336 h, 14 DAA) was 85%, the pest or weed control at 280 g/ha ([3]; 504 h, 21 DAA) was 75% and the pest or weed control at 560 g/ha ([3]; 504 h, 21 DAA) was 83%. For the same compound, the “TGA Data (rate of weight loss, volatility)” value [4] was 2.4 µg/min, the pest or weed control at 280 g/ha ([5]; 168 h, 7 DAA) was 75% and the pest or weed control at 560 g/ha ([5]; 168 h, 7 DAA) was 83%. It also gave a pest or weed control at 280 g/ha ([5]; 336 h, 14 DAA) of 78%, a pest or weed control at 560 g/ha ([5]; 336 h, 14 DAA) of 93% and a pest or weed control at 280 g/ha ([5]; 504 h, 21 DAA) of 86%. The pest or weed control at 560 g/ha ([5]; 504 h, 21 DAA) was 97%, the “AVE. GLXMA, percent reduction in plant size relative to the untreated control” value ([6]; 280 g ae/ha, 7 DAA) was 0% and the “AVE. GLXMA, percent reduction in plant size relative to the untreated control” value ([6]; 280 g ae/ha, 14 DAA) was 0%. For the same compound, the “AVE. GLXMA, percent reduction in plant size relative to the untreated control” value ([6]; 280 g ae/ha, 21 DAA) was 3%, the “AVE. GLXMA, percent reduction in plant size relative to the untreated control” value ([6]; 560 g ae/ha, 7 DAA) was 0% and the “AVE. GLXMA, percent reduction in plant size relative to the untreated control” value ([6]; 560 g ae/ha, 14 DAA) was 0%. For the same compound, the “AVE. GLXMA, percent reduction in plant size relative to the untreated control” value ([6]; 560 g ae/ha, 21 DAA) was 0%, the pest or weed control at 280 g/ha ([7]; 168 h, 7 DAA) was 73% and the pest or weed control at 560 g/ha ([7]; 168 h, 7 DAA) was 78%. The pest or weed control at 280 g/ha ([7]; 336 h, 14 DAA) was 83%, the pest or weed control at 560 g/ha ([7]; 336 h, 14 DAA) was 88% and the pest or weed control at 280 g/ha ([7]; 504 h, 21 DAA) was 95%. The pest or weed control at 560 g/ha ([7]; 504 h, 21 DAA) was 93%, the pest or weed control at 280 g/ha ([8]; 168 h, 7 DAA) was 71% and the pest or weed control at 560 g/ha ([8]; 168 h, 7 DAA) was 77%. It also gave a pest or weed control at 280 g/ha ([8]; 336 h, 14 DAA) of 81%, a pest or weed control at 560 g/ha ([8]; 336 h, 14 DAA) of 86% and a pest or weed control at 280 g/ha ([8]; 504 h, 21 DAA) of 86%. For the same compound, the pest or weed control at 560 g/ha ([8]; 504 h, 21 DAA) was 89%.

For `CN(NC(=O)COc1ccc(Cl)cc1Cl)c1ccccc1` [Compound D11, 2-(2,4-Dichlorophenoxy)-N′-methyl-N′-phenylacetohydrazide], the “TGA Data (rate of weight loss, volatility)” value [4] was 0.06 µg/min, the “Overall Ave % Weed Control” value ([9]; 280 g ae/ha, 7 DAA) was 63% and the “Overall Ave % Weed Control” value ([9]; 280 g ae/ha, 14 DAA) was 76%. For the same compound, the “Overall Ave % Weed Control” value ([9]; 280 g ae/ha, 21 DAA) was 80%, the “Overall Ave % Weed Control” value ([9]; 560 g ae/ha, 7 DAA) was 69% and the “Overall Ave % Weed Control” value ([9]; 560 g ae/ha, 14 DAA) was 82%. For the same compound, the “Overall Ave % Weed Control” value ([9]; 560 g ae/ha, 21 DAA) was 89%.
